Source: patent publication US9006487B2, “Amine-containing lipids and uses thereof” (Massachusetts Institute of Technology, priority 2005, dated 2015)

System: cos-7 cells
Assay: DNA transfection: luciferase expression relative to Lipofectamine 2000
Type: cell-based
Conditions: for Luciferase expression as a percentage of that achieved using Lipofectamine 2000: 300 ng Luciferase DNA per well; for Luciferase expression as a percentage of that achieved using Lipofectamine 2000 / % of the luciferase activity obtained from the use of Lipofectamine 2000: luciferase assay after 48 hours; for % of the luciferase activity obtained from the use of Lipofectamine 2000: 300 ng DNA per well; for luciferase expression (second part of table, values relative to LIPO2000): 300 ng of DNA per well
Procedure, shortened: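 cos-7 cells were transfected with 300 ng/well luciferase DNA complexed with lipid at ratios from 2.5 to 25 w/w. Bright-Glo luminescence was read after 48 hours and converted to ng luciferase by standard curve. Data are percent of the Lipofectamine 2000 control (2.5 w/w).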

Compound | Luciferase expression as a percentage of that achieved using Lipofectamine 2000 (lipid/DNA 2.5 w/w) | Luciferase expression as a percentage of that achieved using Lipofectamine 2000 (lipid/DNA 5 w/w) | Luciferase expression as a percentage of that achieved using Lipofectamine 2000 (lipid/DNA 10 w/w) | Luciferase expression as a percentage of that achieved using Lipofectamine 2000 (lipid/DNA 15 w/w) | Luciferase expression as a percentage of that achieved using Lipofectamine 2000 (lipid/DNA 20 w/w) | Luciferase expression as a percentage of that achieved using Lipofectamine 2000 (lipid/DNA 25 w/w) | % of the luciferase activity obtained from the use of Lipofectamine 2000 (2.5 w/w lipid to DNA) | % of the luciferase activity obtained from the use of Lipofectamine 2000 (5 w/w lipid to DNA) | % of the luciferase activity obtained from the use of Lipofectamine 2000 (10 w/w lipid to DNA) | % of the luciferase activity obtained from the use of Lipofectamine 2000 (15 w/w lipid to DNA) | % of the luciferase activity obtained from the use of Lipofectamine 2000 (20 w/w lipid to DNA) | % of the luciferase activity obtained from the use of Lipofectamine 2000 (25 w/w lipid to DNA) | luciferase expression (second part of table, values relative to LIPO2000) (lipid/DNA 2.5 w/w) | luciferase expression (second part of table, values relative to LIPO2000) (lipid/DNA 5 w/w) | luciferase expression (second part of table, values relative to LIPO2000) (lipid/DNA 10 w/w) | luciferase expression (second part of table, values relative to LIPO2000) (lipid/DNA 15 w/w) | luciferase expression (second part of table, values relative to LIPO2000) (lipid/DNA 20 w/w) | luciferase expression (second part of table, values relative to LIPO2000) (lipid/DNA 25 w/w)
CCCCCCCCCCCCCCCOC(=O)CCN(CCOCC)CCC(=O)OCCCCCCCCCCCCCCC [LG11] | 0.0% | 0.0% | 0.0% | 0.0% | 0.0% | 0.0% |  |  |  |  |  |  |  |  |  |  |  | 
CCCCCCCCCCCCCCOC(=O)CC[N+](C)(CCC(=O)OCCCCCCCCCCCCCC)CCC1OCCO1.[I-] [QF6] | 0.0% | 0.0% | 0.0% | 0.0% | 0.0% | 0.0% |  |  |  |  |  |  |  |  |  |  |  | 
CCCCCCCCCCCCCCOC(=O)CCN(CCC(=O)OCCCCCCCCCCCCCC)C(C)CN(C)C (stereo not drawn) [LF79] | 0.1% | 0.3% | 0.3% | 0.3% | 0.3% | 0.3% |  |  |  |  |  |  |  |  |  |  |  | 
CCCCCCCCCCOC(=O)CCN(CCC(=O)OCCCCCCCCCC)CCC1CCCN1C (stereo not drawn) [LB77] | 0.1% | 0.1% | 0.1% | 0.2% | 0.1% | 0.3% |  |  |  |  |  |  |  |  |  |  |  | 
CCCCCCCCCCOC(=O)CCN(CCC(=O)OCCCCCCCCCC)CC1COC(C)(C)O1 (stereo not drawn) [LB7] | 0.1% | 0.1% | 0.1% | 0.1% | 0.1% | 0.2% |  |  |  |  |  |  |  |  |  |  |  | 
CCCCCCCCCCCCCCCOC(=O)CCN(CCC(=O)OCCCCCCCCCCCCCCC)CC(OC)OC [LG13] | 0.0% | 0.0% | 0.0% | 0.0% | 0.0% | 0.0% |  |  |  |  |  |  |  |  |  |  |  | 
CCCCCCCCCCCCCCOC(=O)CCN(CCC(=O)OCCCCCCCCCCCCCC)CCN1CCCC1 [LF76] | 1.7% | 5.6% | 9.8% | 24.3% | 22.2% | 19.5% |  |  |  |  |  |  |  |  |  |  |  | 
CCCCCCCCCCCCCCCCCCOC(=O)CCN(CCC(=O)OCCCCCCCCCCCCCCCCCC)CC(OC)OC [LH13] | 0.0% | 0.0% | 0.0% | 0.0% | 0.0% | 0.0% |  |  |  |  |  |  |  |  |  |  |  | 
CCCCCCCCCCCCCOC(=O)CCN(CCC(=O)OCCCCCCCCCCCCC)CCN(CCO)CCO [LE86] |  |  |  |  |  |  | 31.1% | 22.7% | 22.6% | 2.5% | 0.0% | 0.0% |  |  |  |  |  | 
CCCCCCCCCCCCOC(=O)CCN(CCC(=O)OCCCCCCCCCCCC)C(C)CN(C)C (stereo not drawn) [LD79] | 0.1% | 0.1% | 0.1% | 0.2% | 0.3% | 0.2% |  |  |  |  |  |  |  |  |  |  |  | 
CCCCCCCCCCOC(=O)CCN(CCC(=O)OCCCCCCCCCC)C[C@@H](C)O [LB21] | 0.7% | 0.8% | 0.7% | 0.7% | 0.7% | 0.8% |  |  |  |  |  |  |  |  |  |  |  | 
CCCCCCCCCCOC(=O)CCN(CCC(=O)OCCCCCCCCCC)CC(C)(C)CO [LB33] | 0.1% | 0.1% | 0.1% | 0.1% | 0.1% | 0.1% |  |  |  |  |  |  |  |  |  |  |  | 
CCCCCCCCCCCCCCCOC(=O)CCN(CCCN(CC)CC)CCC(=O)OCCCCCCCCCCCCCCC [LG81] | 0.7% | 0.8% | 1.2% | 4.1% | 14.8% | 19.9% |  |  |  |  |  |  |  |  |  |  |  | 
CCCCCCCCCCCCCCOC(=O)CCN(CCC(=O)OCCCCCCCCCCCCCC)C[C@@H](C)O [LF21] | 0.4% | 0.4% | 0.4% | 0.4% | 0.4% | 0.4% |  |  |  |  |  |  |  |  |  |  |  | 
CCCCCCCCCCOC(=O)CCN(CCCO)CCC(=O)OCCCCCCCCCC [LB20] | 0.1% | 0.1% | 0.4% | 0.2% | 0.3% | 0.7% |  |  |  |  |  |  |  |  |  |  |  | 
CCCCCCCCCCCCCCCCCCOC(=O)CCN(CCC(=O)OCCCCCCCCCCCCCCCCCC)CC1CCCO1 (stereo not drawn) [LH15] | 0.0% | 0.0% | 0.0% | 0.0% | 0.0% | 0.0% |  |  |  |  |  |  |  |  |  |  |  | 
CCCCCCCCCCCCCCOC(=O)CCN(CCCn1ccnc1)CCC(=O)OCCCCCCCCCCCCCC [LF93] | 32.0% | 50.4% | 15.0% | 150.7% | 143.2% | 171.3% |  |  |  |  |  |  | 32.0 | 50.4 | 15.0 | 150.7 | 143.2 | 171.3
CCCCCCCCCCCCCCCOC(=O)CCN(CCCN(CCO)CCO)CCC(=O)OCCCCCCCCCCCCCCC [LG87] | 14.5% | 7.5% | 9.2% | 10.4% | 5.9% | 4.7% |  |  |  |  |  |  |  |  |  |  |  | 
CCCCCCCCCCCCCCCOC(=O)CCN(CCC(=O)OCCCCCCCCCCCCCCC)C(C)(CO)CO [LG26] | 0.6% | 13.0% | 1.9% | 0.5% | 0.3% | 0.4% |  |  |  |  |  |  |  |  |  |  |  | 
